Measured values as given in patent publication US20070099276A1, “Retrovirus-like particles and retroviral vaccines” (priority 2003, published 2007).

Biological target: HIV protease (Human immunodeficiency virus type 1 group M subtype B, UniProt P12497)
Assay type: cell-based, HIV-1
Procedure: Retrovirus-like particles and virions were isolated by centrifugation through a 20% sucrose pad in a SW28.1Ti rotor (Beckman-Coulter, Inc., Fullerton, Calif.) at 120,000 g at 4° C. for 1 hour. Immunoblot analyses of retrovirus-like particles and virion preparations (the equivalent of 10% of the transfection supernatant) were performed as previously described, using peroxidase-conjugated secondary antibodies and developed with the Enhanced ChemiLuminescence reagent (Amersham Life Science, Arlington Heights, Ill.). Rabbit antiserum against p6Gag (DJ-30552) and goat antiserum against, p7NC (#77), p17MA (#83), or p24CA (#81) were obtained from the AIDS Vaccine Program. Monoclonal antibody against reverse transcriptase was obtained from Perkin Elmer/NEN Life Science. N-terminal protein sequence analysis was carried out on an Applied Biosystems Procise model 494 microsequencer (Foster City, Calif.) as previously described (Chertova et al., J. Virol., 76:5315 (2002)). Micro-scale high-pressure liquid chromatography (HPLC) was performed as previously described (Chertova et al., J. Virol. 76:5315 (2002)). Matrix-assisted laser desorption/ionization-time-of-flight (MALDI) mass spectrometry was carried out as previously described (Ott et al., J. Virol., 73:19 (1999)) using a Kratos Kompact Probe (Kratos Analytical Inc., Chestnut Ridge, N.Y.).
To examine protease activity and mutant budding in another way, 293T cells were transfected with pNL4-3 or DelNC and then treated without or with 10 nM of the protease inhibitor Saquinavir for 24 hours.

CC(C)(C)NC(=O)[C@@H]1C[C@@H]2CCCC[C@@H]2CN1C[C@@H](O)[C@H](Cc1ccccc1)NC(=O)[C@H](CC(N)=O)NC(=O)c1ccc2ccccc2n1 [Saquinavir]
effect on DelNC Gag processing: essentially eliminated | effect on amount of pNL4-3 virions in the medium: not largely increased | effect on cleavage of NL4-3 Gag: only a slight reduction | effect on production of DelNC retrovirus-like particles: increased
